Laboratory results reported in US20260184707A1, “PHARMACEUTICAL COMPOUNDS FOR THE TREATMENT OF COMPLEMENT MEDIATED DISORDERS” (ALEXION PHARMACEUTICALS, INC., priority 2022, published 2026).

Target: T1, Human complement C1s enzyme (Homo sapiens, UniProt P09871)
T1 construct: purified from human serum, Complement Technology, Inc; purchased Complement Technology, Inc; host or cells: human serum (plasma-derived native protein)
T1 sequence (P09871 438-688 limits assumed): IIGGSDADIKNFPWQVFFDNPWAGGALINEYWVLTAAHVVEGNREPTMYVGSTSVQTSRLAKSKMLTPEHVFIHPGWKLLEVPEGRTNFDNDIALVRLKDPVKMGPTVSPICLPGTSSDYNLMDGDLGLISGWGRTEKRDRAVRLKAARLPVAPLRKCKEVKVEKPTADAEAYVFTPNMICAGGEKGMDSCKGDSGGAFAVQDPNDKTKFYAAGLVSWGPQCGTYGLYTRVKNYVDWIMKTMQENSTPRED
T1 sequence (P09871 16-437 partner limits assumed): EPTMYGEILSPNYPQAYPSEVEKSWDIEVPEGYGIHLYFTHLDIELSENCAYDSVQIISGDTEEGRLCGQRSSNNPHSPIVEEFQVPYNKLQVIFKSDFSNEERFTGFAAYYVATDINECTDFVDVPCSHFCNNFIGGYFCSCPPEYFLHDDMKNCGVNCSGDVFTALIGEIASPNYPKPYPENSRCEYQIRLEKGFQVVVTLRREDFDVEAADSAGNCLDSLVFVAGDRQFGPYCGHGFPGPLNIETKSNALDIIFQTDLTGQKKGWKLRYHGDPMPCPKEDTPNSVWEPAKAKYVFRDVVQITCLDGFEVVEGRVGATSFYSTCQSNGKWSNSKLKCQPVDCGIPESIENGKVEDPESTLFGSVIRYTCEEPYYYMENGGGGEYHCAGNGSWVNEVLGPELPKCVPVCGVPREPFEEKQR
Test: Human C1s enzyme assay
Assay type: biochemical
Details: human complement C1s enzyme 1.16 nM, substrate Z-L-Lys-SBzl, A405; read-out: IC50 (Stars)
Summary of the method: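 Thioesterase activity followed colorimetrically (DTNB, A405, 30-s reads) using 100 μM Z-L-Lys-SBzl substrate. Enzyme, human serum-derived C1s at 1.16 nM final, was incubated with test compound for 5 min, room temperature, pH 7.5 Tris buffer with 1 M NaCl. Rate-versus-concentration data fitted by nonlinear regression for IC50.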

Row | SMILES | IC50
1 | O=C(Cn1c(-c2ccccc2F)cnc(N[C@H](CF)c2ccc3oc4ccccc4c3c2)c1=O)NCc1cc2cnccc2[nH]1 [Compound 443, (S)-N-((1H-pyrrolo[3,2-c]pyridin-2-yl)methyl)-2-(3-((1-(dibenzo[b,d]furan-2-yl)-2-fluoroethyl)amino)-6-(2-fluorophenyl)-2-oxopyrazin-1(2H)-yl)acetamide] | < 100 nM
2 | C[C@@H](Nc1ncc(N2CCNCC2)n(CC(=O)NCc2cc3cnccc3[nH]2)c1=O)c1ccc2oc3ccccc3c2c1 [Compound 444, (R)-N-((1H-pyrrolo[3,2-c]pyridin-2-yl)methyl)-2-(3-((1-(dibenzo[b,d]furan-2-yl)ethyl)-amino)-2-oxo-6-(piperazin-1-yl)pyrazin-1(2H)-yl)acetamide] | < 100 nM
3 | C[C@@H](Nc1cnc(N2CCCCC2)n(CC(=O)NCc2cc3cnccc3[nH]2)c1=O)c1ccc(-c2ccccc2)s1 [Compound 445, (R)—N-((1H-Pyrrolo[3,2-c]pyridine-2-yl)methyl)-2-(6-oxo-5-((1-(5-phenylthiophen-2-yl)ethyl)amino)-2-(piperidin-1-yl)pyrimidin-1(6H)-yl)acetamide] | < 100 nM
4 | C[C@@H](Nc1cnc(-c2cscn2)n(CC(=O)NCc2cc3cnccc3[nH]2)c1=O)c1ccc(-c2ccccc2F)cc1 [Compound 446, (R)-N-((1H-pyrrolo[3,2-c]pyridin-2-yl)methyl)-2-(5-((1-(2′-fluoro-[1,1′-biphenyl]-4-yl)ethyl)amino)-6-oxo-2-(thiazol-4-yl)pyrimidin-1(6H)-yl)acetamide] | < 100 nM
5 | C[C@@H](Nc1ncc(-c2ccccn2)n(CC(=O)NCc2cc3cnccc3[nH]2)c1=O)c1ccc(-c2ccccc2F)cc1 [Compound 449, (R)-N-((1H-pyrrolo[3,2-c]pyridin-2-yl)methyl)-2-(3-((1-(2′-fluoro-[1,1′-biphenyl]-4-yl)ethyl)amino)-2-oxo-6-(pyridin-2-yl)pyrazin-1(2H)-yl)acetamide] | < 100 nM
6 | C[C@@H](Nc1cnc(C2=CCCCC2)n(CC(=O)NCc2cc3cnccc3[nH]2)c1=O)c1coc(-c2ccccc2)n1 [Compound 450, (R)-N-((1H-pyrrolo[3,2-c]pyridin-2-yl)methyl)-2-(2-(cyclohex-1-en-1-yl)-6-oxo-5-((1-(2-phenyloxazol-4-yl)-ethyl)amino)pyrimidin-1(6H)-yl)acetamide] | < 100 nM
7 | C[C@@H](Nc1cnc(N2CCCCC2)n(CC(=O)NCc2cc3cnccc3[nH]2)c1=O)c1cnc(-c2ccccc2)o1 [Compound 453, (R)—N-((1H-Pyrrolo[3,2-c]pyridine-2-yl)methyl)-2-(6-oxo-5-((1-(2-phenyloxazol-5-yl)ethyl)amino)-2-(piperidin-1-yl)pyrimidin-1(6H)-yl)acetamide] | < 100 nM
8 | O=C(Cn1c(-c2ccccc2)ncc(NCc2nnc(-c3ccccc3)s2)c1=O)NCc1cc2cnccc2[nH]1 [Compound 454, N-((1H-pyrrolo[3,2-c]pyridin-2-yl)methyl)-2-(6-oxo-2-phen-yl-5-(((5-phenyl-1,3,4-thiadia-zol-2-yl)methyl)amino)pyr-imidin-1(6H)-yl)acetamide] | < 100 nM
9 | Cc1cnc(CNc2cnc(-c3ccccc3)n(CC(=O)NCc3cc4cnccc4[nH]3)c2=O)o1 [Compound 455, N-((1H-pyrrolo[3,2-c]pyridin-2-yl)methyl)-2-(5-(((5-methyl-oxazol-2-yl)methyl)amino)-6-oxo-2-phenylpyrimidin-1(6H)-yl)acetamide] | < 100 nM
10 | O=C(Cn1c(-c2ccccc2)ncc(NCc2cc(-c3ccccc3F)on2)c1=O)NCc1cc2cnccc2[nH]1 [Compound 456, N-((1H-pyrrolo[3,2-c]pyridin-2-yl)methyl)-2-(5-(((5-(2-fluorophenyl)isoxazol-3-yl)-methyl)amino)-6-oxo-2-phen-ylpyrimidin-1(6H)-yl)acet-amide] | < 100 nM
11 | O=C(Cn1c(-c2ccccc2)ncc(NCc2cc(-c3ccccc3)ns2)c1=O)NCc1cc2cnccc2[nH]1 [Compound 458, N-((1H-pyrrolo[3,2-c]pyridin-2-yl)methyl)-2-(6-oxo-2-phen-yl-5-(((3-phenylisothiazol-5-yl)methyl)amino)pyrimidin-1(6H)-yl)acetamide] | < 100 nM
12 | C[C@@H](Nc1cnc(N2CCOCC2)n(CC(=O)NCc2cc3cnccc3[nH]2)c1=O)c1coc(-c2ccccc2)n1 [Compound 461, (R)—N-((1H-Pyrrolo[3,2-c]pyridine-2-yl)methyl)-2-(2-morpholino-6-oxo-5-((1-(2-phenyloxazol-4-yl)ethyl)amino)pyrimidin-1(6H)-yl)acetamide] | < 100 nM
13 | C[C@@H](Nc1cnc(N2CCCCC2)n(CC(=O)NCc2cc3cnccc3[nH]2)c1=O)c1csc(-c2ccccc2)n1 [Compound 463, (R)-N-((1H-pyrrolo[3,2-c]pyridin-2-yl)methyl)-2-(6-oxo-5-((1-(2-phenylthiazol-4-yl)-ethyl)amino)-2-(piperidin-1-yl)-pyrimidin-1(6H)-yl)acetamide] | 100 to 1000 nM

Continued, values first:

Row | IC50 | SMILES
14 | < 100 nM | C[C@@H](Nc1cnc(-c2ccccn2)n(CC(=O)NCc2cc3cnccc3[nH]2)c1=O)c1ccc(-c2ccccc2F)cc1 [Compound 447, (R)-N-((1H-pyrrolo[3,2-c]pyridin-2-yl)methyl)-2-(5-((1-(2′-fluoro-[1,1′-biphenyl]-4-yl)ethyl)amino)-6-oxo-2-(pyridin-2-yl)pyrimidin-1(6H)-yl)acetamide]
15 | 100 to 1000 nM | C[C@@H](Nc1cnc(N2CCCCC2)n(CC(=O)NCc2cc3cnccc3[nH]2)c1=O)c1ccc(Oc2ccccc2)cc1 [Compound 448, (R)-N-((1H-pyrrolo[3,2-c]pyridin-2-yl)methyl)-2-(6-oxo-5-((1-(4-phenoxyphenyl)-ethyl)amino)-2-(piperidin-1-yl)pyrimidin-1(6H)-yl)acet-amide]
16 | < 100 nM | C[C@@H](Nc1cnc(-c2ccc(OCCCCCCCN)cc2)n(CC(=O)NCc2cc3cnccc3[nH]2)c1=O)c1ccc2oc3ccccc3c2c1 [Compound 451, (R)—N-((1H-Pyrrolo[3,2-c]pyridine-2-yl)methyl)-2-(2-(4-((7-aminoheptyl)oxy)phenyl)-5-((1-(dibenzo[b,d]furan-2-yl)ethyl)amino)-6-oxopyrimidin-1(6H)-yl)acetamide]
17 | < 100 nM | C[C@@H](Nc1cnc(-c2ccc(OCCOCCOCCN)cc2)n(CC(=O)NCc2cc3cnccc3[nH]2)c1=O)c1ccc2oc3ccccc3c2c1 [Compound 452, (R)-N-((1H-pyrrolo[3,2-c]pyridin-2-yl)methyl)-2-(2-(4-(2-(2-(2-aminoethoxy)ethoxy)-ethoxy)phenyl)-5-((1-(dibenzo [b,d]furan-2-yl)ethyl)amino)-6-oxopyrimidin-1(6H)-yl)-acetamide]
18 | < 100 nM | O=C(Cn1c(-c2ccccc2)ncc(NCc2cc(-c3ccccc3)no2)c1=O)NCc1cc2cnccc2[nH]1 [Compound 457, N-((1H-pyrrolo[3,2-c]pyridin-2-yl)methyl)-2-(6-oxo-2-phen-yl-5-(((3-phenylisoxazol-5-yl)methyl)amino)pyrimidin-1(6H)-yl)acetamide]
19 | 100 to 1000 nM | C[C@@H](Nc1cnc(N2CCCCC2)n(CC(=O)NCc2cc3cnccc3[nH]2)c1=O)c1coc(-c2ccccc2)n1 [Compound 460, (R)-N-((1H-pyrrolo[3,2-c]pyridin-2-yl)methyl)-2-(6-oxo-5-((1-(2-phenyloxazol-4-yl)-ethyl)amino)-2-(piperidin-1-yl)pyrimidin-1(6H)-yl)acet-amide]
20 | < 100 nM | C[C@@H](Nc1cnc(N2CCCCC2)n(CC(=O)NCc2cc3cnccc3[nH]2)c1=O)c1cnc(-c2ccccc2)s1 [Compound 462, (R)-N-((1H-pyrrolo[3,2-c]pyridin-2-yl)methyl)-2-(6-oxo-5-((1-(2-phenylthiazol-5-yl)ethyl)amino)-2-(piperidin-1-yl)pyrimidin-1(6H)-yl)acet-amide]
21 | < 100 nM | CC(=O)N1CCN(c2ncc(N[C@H](C)c3ccc4oc5ccccc5c4c3)c(=O)n2CC(=O)NCc2cc3cnccc3[nH]2)CC1 [Compound 466, (R)-N-((1H-pyrrolo[3,2-c]pyridin-2-yl)methyl)-2-(2-(4-acetylpiperazin-1-yl)-5-((1-(dibenzo[b,d]furan-2-yl)ethyl)-amino)-6-oxopyrimidin-1(6H)-yl)acetamide]
22 | > 1000 nM | COC[C@H]1CCCN(c2ncc(N[C@H](C)c3ccc4oc5ccccc5c4c3)c(=O)n2CC(=O)NCc2cc3cnccc3[nH]2)C1 [Compound 467, N-((1H-pyrrolo[3,2-c]pyridin-2-yl)methyl)-2-(5-(((R)-1-(dibenzo[b,d]furan-2-yl)ethyl)-amino)-2-((S)-3-(methoxy-methyl)piperidin-1-yl)-6-oxo-pyrimidin-1(6H)-yl)acetamide]
23 | 100 to 1000 nM | C[C@@H](Nc1cnc(N2CCN(C(=O)C3CC3)CC2)n(CC(=O)NCc2cc3cnccc3[nH]2)c1=O)c1ccc2oc3ccccc3c2c1 [Compound 468, (R)-N-((1H-pyrrolo[3,2-c]pyridin-2-yl)methyl)-2-(2-(4-(cyclopropanecarbonyl)piper-azin-1-yl)-5-((1-(dibenzo[b,d]furan-2-yl)ethyl)amino)-6-oxopyrimidin-1(6H)-yl)acet-amide]
